In PubChem BioAssay (NCI):
Values joined by “and” are separate entries in the source; they are usually repeats but may differ in a detail not shown here. Equal values may be shown once.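 Growth conditions: 96-well plates. Treatment: test compound, 48 hours, 5 concentrations. Analysis: linear interpolation between bracketing concentrations; unreached endpoints set to highest concentration. The concentration for 50% growth inhibition is given as GI50. TGI is the concentration that stops growth completely.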 Residues, ends and D or L forms follow the SMILES beside them. *: point of attachment. Cbz = O=C(OCc1ccccc1)*

Columns and labels:
Experiment in all cases: NCI-60 cell line screen, 48 h
[1] = tested on: MDA-MB-435
[2] = tested on: HT29 colon
[3] = tested on: OVCAR-8 ovarian
[4] = tested on: HCT-15 colon
[5] = tested on: RPMI-8226 leukemia
[6] = tested on: OVCAR-4 ovarian
[7] = tested on: SK-OV-3 ovarian
[8] = tested on: EKVX NSCLC
[9] = tested on: UO-31 renal
[10] = tested on: MDA-MB-231 breast

Compound	TGI [1]	TGI [2] [µM]	TGI [3]	TGI [4]	TGI [5]	TGI [6] [µM]	TGI [7] [µM]	TGI [8] [µM]	TGI [9] [µM]	GI50 [1] [nM]	GI50 [2] [nM]	GI50 [10] [nM]	TGI [10] [µM]	GI50 [3]	GI50 [4]	GI50 [9] [nM]	GI50 [5] [nM]	GI50 [6] [nM]	GI50 [7] [nM]	GI50 [8]
CC(=O)OCC1OC(n2ncc(=O)[nH]c2=O)C(OC(C)=O)C1OC(C)=O (centres undefined)	> 100 µM	> 100	> 100 µM	> 100 µM	> 100 µM	> 100	> 100	–	–	–	–	–	–	–	–	–	–	–	–	–
CC(C)=NNC(=S)NC12CC3CC(CC(C3)C1)C2	–	> 100	> 100 µM	> 100 µM	> 100 µM	> 100	> 100	> 100	> 100	–	–	–	–	–	–	–	–	–	–	–
COc1cc(/C=C/C(=O)c2c(-c3ccc(F)cc3)nc3sc(C)nn23)cc(OC)c1OC	13 µM	5.51	12.9 µM	5.46 µM	5.13 µM	85.6	8.91	–	4.94	3350	2550	1990	8.51	2.48 µM	2 µM	1950	1920	3610	2990	–
NC(N)=N/N=C/c1c(-c2cccnc2)nc2sc(Cl)cn12	30.5 µM	–	38.7 µM	28.1 µM	42 µM	–	–	32.9	> 100	16600	–	7950	21.9	16.5 µM	14.9 µM	33800	18000	–	–	16.7 µM
O=C1c2c(Cl)c(Cl)c(Cl)c(Cl)c2C(=O)C2(Cl)CC=CCC12Cl (centres undefined)	4.32 µM	–	3.12 µM	2.83 µM	6.12 µM	3.41	10.9	7.81	3.28	2060	–	1710	3.13	1.64 µM	1.19 µM	1710	2310	1900	2920	2.64 µM
CC(C)C[C@@H](C=O)NC(=O)[C@H](CC(C)C)NC(=O)[C@H](CC(C)C)NC(=O)OCc1ccccc1 (Cbz-Leu-Leu-Leu-aldehyde)	–	0.647	4.66 µM	10.2 µM	13.8 µM	–	5.34	> 100	0.943	–	268	328	1.21	0.523 µM	0.465 µM	252	356	–	614	0.682 µM
C=C1CC2(CCS(=O)(=O)c3ccccc32)OC1=O (centres undefined)	–	31.7	–	27.6 µM	10.6 µM	26.7	44.1	33.1	26	–	–	–	–	–	–	–	–	–	–	–
COC12OCCN(C)C1=CC(=O)C1(C)N=NCC12 (centres undefined)	–	> 100	> 100 µM	> 100 µM	> 100 µM	–	> 100	> 100	> 100	–	–	–	–	–	–	–	–	–	–	–
CN(C)CCS(=O)(=O)Nc1cc(-c2ccc3ncc(C#N)c(Nc4ccc(F)c(Cl)c4)c3c2)cnc1Cl	3 µM	> 25.9	> 32.6 µM	–	0.897 µM	10.3	1.79	1.47	1.29	374	388	185	0.629	0.387 µM	–	188	223	382	299	0.23 µM
C=CC(=O)N1CC[C@H](n2nc(C#Cc3cc(OC)cc(OC)c3)c3c(N)ncnc32)C1	> 100 µM	> 100	> 100 µM	> 100 µM	33.3 µM	> 100	–	> 100	> 100	10600	13900	4070	> 100	8.36 µM	5.53 µM	1320	2450	3470	–	30.7 µM
CCOC(=O)CN(c1ccccc1)c1nc(=[N+](C)C)ss1	–	–	70.1 µM	56.5 µM	55.5 µM	32.7	> 100	–	54.5	–	–	–	–	–	–	–	–	–	–	–
Cc1ccc(C(=O)NCCN(C)C)c2nc3ccccc3cc12	–	11.3	7.99 µM	6.5 µM	> 100 µM	> 100	> 100	4.76	11.1	–	–	–	–	–	–	–	–	–	–	–
COC(=O)C1[C@H](c2ccc3c(c2)OCO3)OC(=O)[C@]1(C(=O)OC)C(=O)c1ccc(OC)c(OC)c1 (some centres undefined)	–	> 100	> 100 µM	> 100 µM	> 100 µM	> 100	> 100	> 100	> 100	–	–	–	–	–	–	–	–	–	–	–
Cn1c(=O)c(Oc2ccc(F)cc2F)cc2cnc(NC3CCOCC3)nc21	> 25 µM	> 25	> 25 µM	> 25 µM	> 25 µM	> 25	> 25	–	> 19.3	> 25000	> 25000	> 25000	> 25	> 25 µM	> 25 µM	8060	> 21100	> 25000	> 25000	–
O=C1CC(CC(OCc2ccccc2)C(OCc2ccccc2)C(COCc2ccccc2)OCc2ccccc2)CC(=O)N1 (centres undefined)	> 100 µM and 21.7 µM	18	> 100 µM and 48.8 µM	> 100 µM and 47.2 µM	> 100 µM and 32.8 µM	> 100	–	> 100	–	–	–	–	23.7	> 100 µM and 13.7 µM	–	–	–	–	–	> 100 µM and 12.5 µM
Cc1ccc(S(=O)(=O)OCCOCCOCCOCCOCCOS(=O)(=O)c2ccc(C)cc2)cc1	–	> 100	88 µM	> 100 µM	92.7 µM	> 100	> 100	> 100	> 100	–	–	–	–	–	–	–	–	–	–	–
CN1CCN(CCCN2c3ccccc3Sc3ccc(Cl)cc32)CC1	6.02 µM and 58.6 µM	–	14.8 µM	11.5 µM and 77.8 µM	16 µM	12.4	13.8	12.4	9.49	–	–	–	–	7.39 µM and 42.8 µM	5.12 µM and 48 µM	–	6160	5740	6930	5.46 µM

Compound	TGI [1]	TGI [2] [µM]	TGI [3]	TGI [4]	TGI [5]	TGI [6] [µM]	TGI [7] [µM]	TGI [8] [µM]	TGI [9] [µM]	GI50 [1] [nM]	GI50 [2] [nM]	GI50 [10] [nM]	TGI [10] [µM]	GI50 [3]	GI50 [4]	GI50 [9] [nM]	GI50 [5] [nM]	GI50 [6] [nM]	GI50 [7] [nM]	GI50 [8]
N#CCc1nnc(N)o1	–	–	–	> 100 µM	> 100 µM	–	> 100	> 100	> 100	–	–	–	–	–	–	–	–	–	–	–
C=CCOC(=O)Nc1cccn([C@H](CC(C)C)C(=O)NCCC(C)C)c1=O	> 100 µM	> 100	> 100 µM	> 100 µM	> 100 µM	> 100	> 100	–	> 100	> 100000	> 100000	21100	67.2	> 100 µM	84.5 µM	27500	22700	28100	> 100000	–
CN(C)c1ccccc1[CH2][Ga]([Cl])[CH2]c1ccccc1N(C)C	3.12 µM	2.82	3.23 µM	2.33 µM	3.63 µM	3.07	3.8	2.24	–	1610	583	1310	2.71	1.47 µM	0.698 µM	–	651	1240	1710	0.794 µM
COc1cc2c(c(OC)c1OC)-c1c(c3ccc([N+](=O)[O-])cc3c(=O)n1CCCN)C2=O	1.63 µM	–	6.42 µM	16.8 µM	3.75 µM	12.9	25.1	33	1.68	865	–	908	1.74	1.79 µM	8.16 µM	892	1290	2900	12800	7.1 µM
CC[PH+](CC)CC.CC[PH+](CC)CC.[Au]	–	32.4	38.1 µM	25.7 µM	30.2 µM	25.1	35.2	11.5	35.8	–	16300	–	–	17.9 µM	6.24 µM	21400	3870	12500	20900	5.83 µM
Cn1cc(C2=C(c3cn(CCCCCO)c4ccccc34)C(=O)NC2=O)c2ccccc21	4.4 µM	13.9	> 20.2 µM	> 25 µM	18.4 µM	17.5	17.8	–	12.9	815	3310	8930	> 24	6.3 µM	2.57 µM	4110	6600	5110	4920	–
CC(=O)N[C@@H](Cc1ccc(OP(=O)(O)O)cc1)C(=O)N[C@H]1CCC(=O)N2CCC[C@@H](C(=O)NCc3ccccc3)N2C1=O	> 25 µM	> 25	> 25 µM	> 25 µM	> 25 µM	> 25	> 25	–	> 25	> 25000	> 25000	> 25000	> 25	> 25 µM	> 25 µM	> 25000	> 25000	> 25000	> 25000	–
COc1cc(C2CC(=O)Nc3c2c(C)nn3-c2nc3ccccc3[nH]2)cc(OC)c1O (centres undefined)	4.42 µM	16.6	> 32.1 µM	> 100 µM	12.5 µM	11.4	5.9	–	7.7	1980	3660	2980	8.15	3.4 µM	3.69 µM	2490	3070	2430	2700	–
O=C(O)CN(c1ccc(F)cc1)S(=O)(=O)c1ccccc1	–	> 100	> 100 µM	> 100 µM	> 100 µM	> 100	> 100	> 100	> 100	–	–	–	–	–	–	–	–	–	–	–
O=C1C(=O)N(c2ccc(Cl)cc2)C(=O)C(=Nc2cccc3c(=O)[nH][nH]c(=O)c23)C1c1nc2ccccc2o1 (centres undefined)	–	> 100	> 100 µM	> 100 µM	> 100 µM	> 100	> 100	> 100	> 100	–	–	–	–	–	–	–	–	–	–	–
O=[N+]([O-])c1ccc2c(c1)C(c1ccccc1Cl)=Nc1c(n[nH]c1-c1cccnc1)N2	> 25 µM	> 25	> 25 µM	> 25 µM	> 25 µM	> 25	> 25	–	> 25	> 25000	> 25000	> 25000	> 25	> 25 µM	> 25 µM	> 25000	> 25000	> 19800	> 25000	–
COc1ccc2nc3cccc([N+](=O)[O-])c3c(NC(C)CN(C)C)c2c1 (centres undefined)	–	6.8	7.64 µM	–	6 µM	4.65	9.14	34.4	3.62	–	1630	2230	10.6	1.54 µM	3.71 µM	1700	1780	2000	2620	6.96 µM
COc1ccc(-c2[nH]nc(N)c2-c2cc(OC)c(OC)c(OC)c2)cc1	0.0446 µM	18.2	> 100 µM	> 100 µM	7.69 µM	> 100	2.2	–	66.7	10.6	34.3	74	> 100	0.0459 µM	0.0345 µM	64.4	35.2	1620	41.7	–
NCCSC(c1ccccc1)(c1ccccc1)c1ccccc1	0.55 µM	4.23	7 µM	1.75 µM	4.19 µM	12.9	12.5	–	12.9	242	1950	607	2.33	0.989 µM	0.409 µM	2030	1110	2940	512	–
O=c1cccc2n1CC1CNC[C@H]2C1	> 100 µM	> 100	> 100 µM	> 100 µM	–	> 100	> 100	> 100	> 100	–	–	–	> 100	–	–	–	–	–	–	–
COc1cc(O)c2c(c1)C(=O)C1=C(C2=O)C(O)C[C@@](C)(O)C1 (some centres undefined)	–	2.39	6.15 µM	3.61 µM	6.52 µM	3.01	17.1	13.1	6.6	–	–	–	–	–	–	–	–	–	–	–
O=C(CSSCC(=O)Nc1ccc(Br)cc1)Nc1ccc(Br)cc1	–	47.6	31.6 µM	46.6 µM	64.3 µM	35.4	40	48.9	31.8	–	–	–	–	–	–	–	–	–	–	–
